In US11389415B2, “Methods of regulating cannabinoid receptor activity-related disorders and diseases” (The United States of America as represented by the …, priority 2012, dated 2022):

Experiments:
[1] = In vitro metabolic stability, human liver microsomes; format: in vitro ADME; conditions: 37° C.
Protocol: FIG. 10 presents the data from the in vitro metabolic stability study in which MNF was incubated (in duplicate) with active and heat-inactivated human (HLM) and rat (RLM) liver microsomes and cofactors at 37° C. Aliquots were removed at 0, 15, 30 and 60 minutes and the amount of test compound (MNF) remaining at each time point was determined by LC-MS/MS.

[2] = biological target: T1, CYP2D6 (Homo sapiens, UniProt P10635); assay: CYP inhibition in human liver microsomes, CYP2D6; format: in vitro ADME; conditions: 10 μM, 20 minutes, 37° C.
T1 construct: from tissue; host or cells: human liver microsomes
Protocol: (§1) Incubations containing known CYP inhibitors were also included as positive controls. Formation of the model substrate metabolites was measured by LC-MS/MS and compared to control incubations (incubation of substrates with microsomes and cofactors, no test articles or inhibitors). CYP activity in presence of test compound (MNF) that was less than 70% of control was considered significant. MNF (10 μM) inhibited CYP2D6 and CYP3A4 to less than 70% of the control. Further, the primary metabolite was determined to be O-demethylated-MNF. These studies indicate that MNF alters the metabolism of other drugs or endogenous compounds that are substrates for CYP2D6 and/or CYP3A4 isoforms, when present in the plasma or liver at 10 μM or higher.

[3] = biological target: T2, CYP3A4 (Homo sapiens, UniProt P08684); assay: CYP inhibition in human liver microsomes, CYP3A4; format: in vitro ADME; conditions: 10 μM, 20 minutes, 37° C.
T2 construct: from tissue; host or cells: human liver microsomes
Protocol: as §1

[4] = Effect on central nervous system functions; format: in vivo; conditions: as compared to tetrahydrocannabinol
Protocol: Additional studies were performed which further evaluated the effect of MNF on central nervous system functions.

[5] = biological target: GPR55 (Homo sapiens, UniProt Q9Y2T6); assay: GPR55 internalization assay in hGPR55-HEK293 cells; format: cell-based; conditions: 1 μM pretreatment 45 minutes
Protocol: GPR55 internalization assay. Endocytosis of GPR55 was observed following a previously described protocol with minor modifications (Henstridge et al., Br. J. Pharmacol. 160: 604-614, 2010). Briefly, hGPR55-HEK293 cells were grown on Lab-Tek II CC2 chamber slides (Thermo Scientific Nunc, Rochester, N.Y.) for 48 hours in regular media and then were serum starved for 1 hour. A preincubation with 1:1000 rabbit HA antibody (Covance, Md.) was performed in the presence of vehicle (0.1% DMSO) or 1 μM MNF in serum-free media for 45 minutes at 37° C. in the CO2 incubator. Cells were then washed extensively with PBS and treated with 5 μM 01602 in serum-free media for 20 minutes at 37° C. in the CO2 incubator. Subsequently, cells were washed three times, fixed in fresh 3.7% paraformaldehyde in PBS (10 min), and incubated with anti-rabbit Alexa Fluor 488 antibody (Molecular Probes, Eugene, Oreg.; 1:1000, 30 minutes). Cells were washed and fixed for a second time prior to permeabilization with 0.2% Triton X-100 (5 minutes). Incubation with anti-rabbit Alexa Fluor 568 antibody (Molecular Probes; 1:1000, 30 minutes) was carried out to determine the extent of internalized GPR55-HA antibody complex. […]

[6] = tested on: ERK1/2; assay: ERK1/2 phosphorylation (GPR55 downstream signaling) in HepG2 cells; format: cell-based, human
Protocol: Western blot analysis. For detection of intracellular signaling proteins, cells were lysed in radioimmunoprecipitation buffer containing EGTA and EDTA (Boston BioProducts, Ashland, Mass.). The lysis buffer contained a protease inhibitor cocktail (Sigma-Aldrich) and phosphatase inhibitor cocktail (Calbiochem, San Diego, Calif.). Equivalent amount of proteins (14 and 54 μg/well for PANC-1 and HepG2 cells, respectively) were separated on 4 to 12% precast gels (Invitrogen, Carlsbad, Calif.) using SDS-polyacrylamide gel electrophoresis under reducing conditions and then electrophoretically transferred onto polyvinylidene fluoride membrane (Invitrogen). Western blots were performed according to standard methods, which involved blocking in 5% non-fat milk and incubated with the antibody of interest, followed by incubation with a secondary antibody conjugated with the enzyme horseradish perodixase. The detection of immunoreactive bands was performed by chemiluminescence using the ECL Plus Western Blotting Detection System (GE Healthcare, Piscataway, N.J.). The quantification of bands was done by volume densitometry by using ImageJ software. The rabbit polyclonal antibodies against EGFR were obtained from Cell Signaling Technology, Inc. (Beverly, Mass.) and the monoclonal anti-Hsp90 was purchased from Santa Cruz Biotechnology, Inc. (Santa Cruz, Calif.).
Effect of MNF on O-1602-mediated increase in cell signaling. Serum-starved cells were pretreated in the absence or presence of 1 μM MNF for 10 minutes followed by a 10 minute incubation with 0, 2.5 and 10 μM O-1602 or 10% FBS, after which the levels of total ERK2 and phosphorylated forms of ERK1/2 (pErk1/2, Thr202/Tyr204), were determined by Western blotting technique. All primary antibodies were purchased from Cell Signaling Technology and used at a dilution recommended by the manufacturer.

[7] = tested on: PANC-1 cells; assay: Scratch wound-healing assay, PANC-1 cells; format: cell-based, human; conditions: PANC-1, 1 μM
Protocol: Scratch assays. These assays were carried out essentially as described previously (Fiori et al., Endocrinology 150: 2551-2560, 2009). In brief, cells were seeded in 12-well nontreated polystyrene cell culture plates with flat bottom (Greiner Bio-One, Monroe, N.C.). Once the cells became confluent, a scratch wound was made with a pipette tip and pictured immediately (time 0). […] Cell migration was examined at 12, 24, 36, 48 hours and 12, 18, 24, 48 hours after scratch for the HepG2 and PANC-1 cells, respectively. Images of the same field were taken every 3 hours to determine the rate of cell migration. Images were captured on an Axiovert 200 inverted microscope (Carl Zeiss, Thornwood, N.Y.) mounted with an AxioCam HRc digital camera (Carl Zeiss) and the measurement of scratch area was performed with ImageJ 1.46s software (National Institutes of Health, Bethesda, Md.). Each study was performed in duplicate dishes and repeated at least twice.

T1 sequence (P10635 whole entry): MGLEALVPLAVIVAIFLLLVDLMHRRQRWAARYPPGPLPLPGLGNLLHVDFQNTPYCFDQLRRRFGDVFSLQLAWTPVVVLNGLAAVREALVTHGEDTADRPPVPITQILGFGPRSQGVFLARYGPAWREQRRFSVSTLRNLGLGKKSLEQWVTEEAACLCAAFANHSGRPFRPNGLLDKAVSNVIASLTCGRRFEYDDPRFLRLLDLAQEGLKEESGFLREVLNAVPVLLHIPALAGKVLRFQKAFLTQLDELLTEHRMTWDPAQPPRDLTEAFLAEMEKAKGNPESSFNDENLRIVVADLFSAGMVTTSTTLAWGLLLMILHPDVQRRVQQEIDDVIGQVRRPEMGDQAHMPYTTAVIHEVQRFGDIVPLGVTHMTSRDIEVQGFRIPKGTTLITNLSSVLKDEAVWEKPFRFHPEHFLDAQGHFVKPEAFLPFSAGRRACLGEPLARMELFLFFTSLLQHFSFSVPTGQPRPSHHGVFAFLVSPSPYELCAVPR
T2 sequence (P08684 whole entry): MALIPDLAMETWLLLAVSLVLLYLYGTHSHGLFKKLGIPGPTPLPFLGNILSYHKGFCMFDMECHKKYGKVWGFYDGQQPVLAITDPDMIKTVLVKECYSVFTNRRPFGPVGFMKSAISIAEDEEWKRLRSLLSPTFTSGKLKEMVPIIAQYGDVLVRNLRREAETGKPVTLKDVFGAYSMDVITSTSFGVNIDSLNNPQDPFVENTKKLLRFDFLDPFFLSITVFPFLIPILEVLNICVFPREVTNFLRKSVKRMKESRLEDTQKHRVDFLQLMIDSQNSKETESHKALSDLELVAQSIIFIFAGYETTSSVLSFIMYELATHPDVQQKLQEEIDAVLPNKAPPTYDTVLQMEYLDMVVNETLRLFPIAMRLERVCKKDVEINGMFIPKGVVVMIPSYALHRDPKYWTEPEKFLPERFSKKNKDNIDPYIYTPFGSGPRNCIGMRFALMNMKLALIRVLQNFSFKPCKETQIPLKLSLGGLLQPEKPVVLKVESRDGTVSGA
GPR55, sequence (Q9Y2T6 whole entry): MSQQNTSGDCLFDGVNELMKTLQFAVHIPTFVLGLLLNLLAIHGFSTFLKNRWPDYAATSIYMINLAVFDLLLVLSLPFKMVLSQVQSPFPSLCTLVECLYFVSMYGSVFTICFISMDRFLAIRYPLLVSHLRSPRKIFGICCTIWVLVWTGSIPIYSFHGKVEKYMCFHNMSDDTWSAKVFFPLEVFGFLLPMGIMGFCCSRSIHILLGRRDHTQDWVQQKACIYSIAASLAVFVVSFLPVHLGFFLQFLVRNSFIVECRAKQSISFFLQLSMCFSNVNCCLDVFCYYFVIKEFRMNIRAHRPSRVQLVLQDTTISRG

For COc1ccc(C[C@@H](C)NC[C@H](O)c2cc(O)cc(O)c2)c2ccccc12 [(R,R′)-MNF, (R,R′)-4′-methoxy-1-naphthylfenoterol], the “stability under the incubation conditions” value ([1]; heat-inactivated microsome controls) was “somewhat unstable under the incubation conditions”, the “metabolic stability, MNF levels” value ([1]; human liver microsomes and cofactors, 0-60 minutes) was “greater decrease in MNF levels” and the “CYP2D6 activity in presence of test compound” value [2] was “less than 70 % of the control”. The “CYP3A4 activity in presence of test compound” value [3] was “less than 70 % of the control”, the “effects on the central nervous system” value [4] was “not have any significant negative effects on the central nervous system” and the “effect on O-1602-induced GPR55 internalization” value [5] was “blocked by pretreatment with MNF”. For the same compound, the “effect on O-1602-mediated ERK phosphorylation” value ([6]; HepG2, 1 μM pretreatment 10 minutes) was “abrogated O-1602 responsiveness”, the “effect on serum-induced ERK phosphorylation” value ([6]; HepG2, 1 μM pretreatment, 10% FBS) was “potently inhibited serum-induced ERK phosphorylation in both cell lines” and the “cell motility, compound alone” value [7] was “did not alter the constitutive rate of gap filling”. The “effect on AM251-induced motility” value ([7]; AM251 1 μM) was “produced significant decrease in AM251-induced motility of PANC-1 cells” and the “effect on wound closure evoked by O-1602” value ([7]; O-1602 1 μM) was “inhibit the wound closure evoked by O-1602 in PANC-1 cells”.
